Patent US8637665B2, “Pyrrolo[2,L-C][L,4]benzodiazepine-benzothiazole or benzoxazole conjugates linked through piperazine moiety and process for the preparation thereof” (priority 2010, dated 2014)
Like-named read-outs stand apart in the source and are kept apart here.

Assays:
[1] = system: MCF 7 (breast cancer) cell line; details: comparative data, hybrids without piperazine; read-out: GI50 MCF 7 (hybrides with out piperazine); cited from earlier work
SNB-19 cell line = details: comparative data, hybrids without piperazine; read-out: GI50 SNB-19 (hybrides with out piperazine); cited from earlier work
[2] = system: HOP 62 (lung cancer) cell line; details: comparative data, hybrids without piperazine; read-out: GI50 HOP 62 (hybrides with out piperazine); cited from earlier work
[3] = system: Colo 205 (colon cancer) cell line; details: comparative data, hybrids without piperazine; read-out: GI50 Colo 205 (hybrides with out piperazine); cited from earlier work
[4] = system: PC 3 (prostate cancer) cell line; details: comparative data, hybrids without piperazine; read-out: GI50 PC 3 (hybrides with out piperazine); cited from earlier work
[5] = system: duplex-form calf thymus DNA (CT-DNA); details: comparative data, hybrids without piperazine, cited from earlier work
[6] = system: A 549 (lung cancer) cell line; details: comparative data, hybrids without piperazine; read-out: GI50 A 549 (hybrides with out piperazine); cited from earlier work
[7] = system: IGROV1 (ovary cancer) cell line; details: comparative data, hybrids without piperazine; read-out: GI50 IGROV1 (hybrides with out piperazine); cited from earlier work
A498 cell line = details: comparative data, hybrids without piperazine; read-out: GI50 A498 (hybrides with out piperazine); cited from earlier work
[8] = system: eight tumour cells lines derived from seven cancer types; assay: In vitro anticancer activity, SRB assay, panel of eight cell lines; type: cell-based; details: Homo sapiens, range over the eight cell lines per compound; read-out: GI50 range against cancer cell lines
Protocol: (§1) Anticancer activity: In vitro biological activity studies were carried out at the Advance Center for Treatment Research & Education in Cancer (ACTREC), Navi Mumbai.
(§2) The compounds were evaluated for in vitro anticancer activity against eight tumour cells lines derived from seven cancer types (non-small-cell lung, colon, oral, cervix, ovarian, prostate, and breast cancer) as shown in Table 2. For each compound, dose response curves for each cell line were measured at a minimum of five concentrations at 10 fold dilutions. A protocol of 48 h continuous drug exposure was used and a sulforhodamine B (SRB) protein assay was used to estimate cell viability or growth. The concentration causing 50% cell growth inhibition (GI50) and 50% cell death (LC50, −50% growth) compared with the control was calculated. Compounds 9a-9l have been evaluated for their in vitro cytotoxicity in eight cell lines from seven human cancer types of lung (Hop-62, A-549) colon (COLO-205) cervix (Si—Ha), ovary (A-2780), prostate (PC3) breast (MCF7), oral (KB). The results are expressed as percent of cell growth determined relative to that of untreated control cells (Table-8 and table-9).

[9] = system: MCF 7 (breast cancer) cell line; assay: cells; type: cell-based; details: Homo sapiens, MCF7, 48 h; for GI50: read-out: GI50 MCF 7; for LC50 (concentration causing 50% cell death): read-out: LC50 MCF 7, 50% cell death, 48 h drug exposure, SRB
Protocol: as §1, §2

[10] = system: SiHa (cervix cancer) cell line; assay: cells; type: cell-based; details: Homo sapiens, SiHa, 48 h; for GI50: read-out: GI50 SiHa, 48 h drug exposure, SRB, mean of three determinations; for LC50 (concentration causing 50% cell death): read-out: LC50 SiHa, 50% cell death, 48 h drug exposure, SRB
Protocol: as §1, §2

[11] = system: PC 3 (prostate cancer) cell line; assay: cells; type: cell-based; details: Homo sapiens, 48 h; for GI50: read-out: GI50 PC 3; for CC50: read-out: LC50 Pc 3, 50% cell death, 48 h drug exposure, SRB
Protocol: as §1, §2

[12] = system: A 2780 (ovary cancer) cell line; assay: cells; type: cell-based; details: Homo sapiens, A2780, 48 h; for GI50: read-out: GI50 A 2780, 48 h drug exposure, SRB, mean of three determinations; for CC50: read-out: LC50 A 2780, 50% cell death, 48 h drug exposure, SRB
Protocol: as §1, §2

[13] = system: Colo 205 (colon cancer) cell line; assay: cells; type: cell-based; details: Homo sapiens, COLO 205, 48 h; for GI50: read-out: GI50 Colo 205, 48 h drug exposure, SRB, mean of three determinations; for CC50: read-out: LC50 Colo 205
Protocol: as §1, §2

[14] = system: A 549 (lung cancer) cell line; assay: cells; type: cell-based; details: Homo sapiens, A549, 48 h; for GI50: read-out: GI50 A 549, 48 h drug exposure, SRB, mean of three determinations; for CC50: read-out: LC50 A 549, 50% cell death, 48 h drug exposure, SRB
Protocol: as §1, §2

[15] = system: HOP 62 (lung cancer) cell line; assay: cells; type: cell-based; details: Homo sapiens, HOP-62, 48 h; for GI50: read-out: GI50 HOP 62, 48 h drug exposure, SRB, mean of three determinations; for LC50: read-out: LC50 HOP 62, 50% cell death, 48 h drug exposure, SRB
Protocol: as §1, §2

[16] = system: KB (oral cancer) cell line; assay: In vitro anticancer activity, SRB assay, KB; type: cell-based, human; details: Homo sapiens, 48 h; for GI50: read-out: GI50 KB, 48 h drug exposure, SRB, mean of three determinations; for CC50: read-out: LC50 KB, 50% cell death, 48 h drug exposure, SRB
Protocol: as §1, §2

[17] = system: duplex-form calf thymus DNA (CT-DNA); assay: Thermal denaturation studies with calf thymus DNA (DNA binding affinity); details: [PBD]:[DNA] 1:5, CT-DNA 100 μM, ligand 20 μM, pH 7.00
Protocol: Compounds have been subjected to thermal denaturation studies with duplex-form calf thymus DNA (CT-DNA) using an modification of a reported procedure (Newman, M. S. Carcinog-compr. Surv. 1976,1, 203; (b) Hecht, S. S.; Loy, M.; Hoffman, Carcinog-compr. Surv. 1976, 1, 325). Working solutions in aqueous buffer (10 mM NaH2PO4/Na2HPO4, 1 mM Na2EDTA, pH 7.00+0.01) containing CT-DNA (100 μm in phosphate) and the PBD (20 μm) have been prepared by addition of concentrated PBD solutions in DMSO to obtain a fixed [PBD]/[DNA] molar ratio of 1:5. The DNA-PBD solutions have been incubated at 37° C. for 0 and 18 h prior to analysis. Samples have been monitored at 260 using a Beckman DU-800 spectrophotometer fitted with high performance temperature controller, and heated at 1° C. min^−1 in the 40-110° C. range. DNA helix→coil transition temperatures (Tm) have been obtained from the maxima in the d(A260)/dT derivative plots. Drug-induced alterations in DNA melting behavior are given by: ΔTm=Tm(DNA+PBD)−Tm(DNA alone), where the Tm value for the PBD-free CT-DNA is 69.1±0.01.
The DNA binding activity for these novel C8-linked benzothiazole, benzoxazole-PBD hybrids has been examined by thermal denaturation studies using calf thymus (CT) DNA. […] The data for the compounds 9a-n is included in Table 7 for comparison.

| Compound | GI50 [1] | GI50 (SNB-19 cell line) | GI50 [2] | GI50 [3] | GI50 [4] | ΔTm after incubation at 37° C. for 0 h (PBD hybrids with out piperizine) [5] | ΔTm after incubation at 37° C. for 18 h (PBD hybrids with out piperizine) [5] | GI50 [6] | GI50 [7] | GI50 (A498 cell line) | GI50 [8] | GI50 [9] | LC50 (concentration causing 50% cell death) [9] | GI50 [10] | LC50 (concentration causing 50% cell death) [10] | GI50 [11] | CC50 [11] | GI50 [12] | CC50 [12] | GI50 [13] | further results |
| --- | --- | --- | --- | --- | --- | --- | --- | --- | --- | --- | --- | --- | --- | --- | --- | --- | --- | --- | --- | --- | --- |
| COc1cc2c(cc1OCCCCOc1ccc(-c3nc4ccccc4s3)cc1)N=C[C@@H]1CCCN1C2=O [Compound 20a] | 320 nM | 1520 nM | 406 nM | 340 nM | 290 nM | 0.5 °C | 0.5 °C | 2630 nM | 2420 nM | 2020 nM | – | – | – | – | – | – | – | – | – | – | – |
| COc1cc(-c2nc3ccccc3s2)ccc1OCCCCOc1cc2c(cc1OC)C(=O)N1CCC[C@H]1C=N2 [Compound 20b] | 400 nM | 1610 nM | 1410 nM | 690 nM | 410 nM | 0.5 °C | 0.5 °C | 2660 nM | 3060 nM | 1600 nM | – | – | – | – | – | – | – | – | – | – | – |
| COc1cc(-c2nc3ccccc3s2)ccc1OCCCCCOc1cc2c(cc1OC)C(=O)N1CCC[C@H]1C=N2 [Compound 20d] | 10 nM | 210 nM | 40 nM | 60 nM | 40 nM | 6.2 °C | 6.3 °C | 240 nM | 344 nM | 170 nM | – | – | – | – | – | – | – | – | – | – | – |
| COc1cc2c(cc1OCCCCCOc1ccc(-c3nc4ccccc4s3)cc1)N=C[C@@H]1CCCN1C2=O [Compound 20c] | 330 nM | 2940 nM | 412 nM | 380 nM | 230 nM | 4.1 °C | 4.3 °C | 2590 nM | 2690 nM | 2260 nM | – | – | – | – | – | – | – | – | – | – | – |
| COc1cc(-c2nc3ccccc3o2)ccc1OCCCN1CCN(CCCOc2cc3c(cc2OC)C(=O)N2CCC[C@H]2C=N3)CC1 [Compound 9j] | – | – | – | – | – | – | – | – | – | – | ≤ 110 nM | < 10 nM | < 10 nM | < 10 nM | 28000 nM | < 10 nM | 2500 nM | < 10 nM | 139 nM | 110 nM | CC50 [13]: > 100000 nM; GI50 [14]: < 10 nM; CC50 [14]: > 100000 nM; GI50 [15]: < 10 nM; LC50 [15]: 2300 nM; GI50 [16]: < 10 nM; CC50 [16]: 200 nM; ΔTm after incubation at 37° C. for 0 h [17]: 10.1 °C; ΔTm after incubation at 37° C. for 18 h [17]: 10.3 °C |
| COc1cc(-c2nc3ccccc3s2)ccc1OCCCN1CCN(CCCOc2cc3c(cc2OC)C(=O)N2CCC[C@H]2C=N3)CC1 [Compound 9b] | – | – | – | – | – | – | – | – | – | – | ≤ 120 nM | < 10 nM | < 10 nM | < 10 nM | 2400 nM | < 10 nM | 2400 nM | < 10 nM | 120 nM | 90 nM | CC50 [13]: > 100000 nM; GI50 [14]: 120 nM; CC50 [14]: > 100000 nM; GI50 [15]: < 10 nM; LC50 [15]: 28000 nM; GI50 [16]: < 10 nM; CC50 [16]: 2200 nM; ΔTm after incubation at 37° C. for 0 h [17]: 12.1 °C; ΔTm after incubation at 37° C. for 18 h [17]: 12.7 °C |
